From US20130101615A1, “METHODS FOR PREVENTING OR TREATING A DISEASE OR CONDITION ASSOCIATED WITH MYCOBACTERIUM AVIUM SUBSPECIES PARATUBERCULOSIS” (priority 2005, published 2013)
“Also recorded” adds a separate entry of the source. Where two headings read alike, the source gives them in different places.

Key:
MAP = assay: Growth inhibition of MAP (strain not stated or MAP strains in general); settings: MAP strains in general
[1] = tested on: MAP Dominic (ATCC 43545), isolated from human with Crohn's disease; format: cell-based, Mycobacterium avium subspecies paratuberculosis; settings: vs 3.2% DMSO control
M. avium 101 = format: cell-based, M. avium subspecies avium; settings: for % ΔcGI: vs 3.2% DMSO control
[2] = tested on: MAP 303 (ruminant with Johne's disease); assay: Radiometric BACTEC growth inhibition, MAP 303; format: cell-based, Mycobacterium avium subspecies paratuberculosis; settings: Bovine MAP 303, vs 3.2% DMSO control
[3] = tested on: MAP UCF 4, isolated from human with Crohn's disease; assay: Radiometric BACTEC growth inhibition, MAP UCF4; format: cell-based, Mycobacterium avium subspecies paratuberculosis; settings: for % ΔcGI: Human MAP UCF4, vs 3.2% DMSO control
MAP ATCC 19698 (bovine) = format: cell-based, Mycobacterium avium subspecies paratuberculosis; settings: for % ΔcGI: Bovine MAP 19698, vs 3.2% DMSO control
M. avium ATCC 25291 = format: cell-based, M. avium subspecies avium; settings: for % ΔcGI: M. avium 25291, vs 3.2% DMSO control
MAP and M. avium strains = assay: Radiometric BACTEC growth inhibition, all strains tested; format: cell-based, Mycobacterium avium; settings: any strain tested (MAP and M. avium)
MAP and M. tuberculosis = format: in vivo, Mice; settings: 15 μg i.p. in combination with Ag85B-ESAT-6 fusion protein, CFA then IFA; challenge at week 8
[4] = 1 μg/ml, Human MAP Dominic Expt. 1
[5] = 1 μg/ml, Human MAP Dominic Expt. 2
[6] = 4 μg/ml, Human MAP Dominic Expt. 1
[7] = 4 μg/ml, Human MAP Dominic Expt. 2
[8] = 16 μg/ml, Human MAP Dominic Expt. 1
[9] = 16 μg/ml, Human MAP Dominic Expt. 2
[10] = 64 μg/ml, Human MAP Dominic Expt. 1
[11] = 64 μg/ml, Human MAP Dominic Expt. 2

Molecule: C=CC[C@@H]1/C=C(\C)C[C@H](C)C[C@H](OC)[C@H]2O[C@@](O)(C(=O)C(=O)N3CCCC[C@H]3C(=O)O[C@H](/C(C)=C/[C@@H]3CC[C@@H](O)[C@H](OC)C3)[C@H](C)[C@@H](O)CC1=O)[C@H](C)C[C@@H]2OC [Tacrolimus, tacrolimus (FK506)]
- effect on growth of MAP, in words (MAP): the least inhibition of the three “immunosuppressants” studied
- % ΔcGI [1, 4]: 28%
- % ΔcGI [1, 5]: 5%
- % ΔcGI [1, 6]: 9%
- % ΔcGI [1, 7]: 9%
- % ΔcGI [1, 8]: 21%
- % ΔcGI [1, 9]: −10%
- % ΔcGI [1, 10]: 0%
- % ΔcGI [1, 11]: −21%
- effect on growth, in words (M. avium 101): the most inhibition on M. avium 101 of all six strains studied
- % ΔcGI (M. avium 101; 1 μg/ml): −34%
- % ΔcGI (M. avium 101; 4 μg/ml): −43%
- % ΔcGI (M. avium 101; 16 μg/ml): −40%
- % ΔcGI (M. avium 101; 64 μg/ml): −52%
- % ΔcGI ([2]; 1 μg/ml): 5%
- % ΔcGI ([2]; 4 μg/ml): 3%
- % ΔcGI ([2]; 16 μg/ml): −5%
- % ΔcGI ([2]; 64 μg/ml): −27%
- % ΔcGI ([3]; 1 μg/ml): 6%
- % ΔcGI ([3]; 4 μg/ml): −19%
- % ΔcGI ([3]; 16 μg/ml): −18%
- % ΔcGI ([3]; 64 μg/ml): −43%
- %−ΔcGI (percent decrease in cumulative GI) ([3]; 64 μg/ml, MAP UCF 4): 43%
- % ΔcGI (MAP ATCC 19698 (bovine); 1 μg/ml): 8%
- % ΔcGI (MAP ATCC 19698 (bovine); 4 μg/ml): −3%
- % ΔcGI (MAP ATCC 19698 (bovine); 16 μg/ml): −5%
- % ΔcGI (MAP ATCC 19698 (bovine); 64 μg/ml): −26%
- %−ΔcGI (percent decrease in cumulative GI) (MAP ATCC 19698 (bovine); 64 μg/ml, MAP ATCC 19698): 26%
- % ΔcGI (M. avium ATCC 25291; 1 μg/ml): −23%
- % ΔcGI (M. avium ATCC 25291; 4 μg/ml): −3%
- % ΔcGI (M. avium ATCC 25291; 16 μg/ml): 11%
- % ΔcGI (M. avium ATCC 25291; 64 μg/ml): 53%
- effect on growth, in words (M. avium ATCC 25291; M. avium ATCC 25291): no inhibition; also recorded: enhanced growth

Molecule: C[C@@H]1C[C@@H]([C@H](O)CC2CC(=O)NC(=O)C2)C(=O)[C@@H](C)C1 [Cycloheximide, cycloheximide]
- effect on growth of MAP, in words (MAP): no dose-dependent inhibition on any MAP strain
- % ΔcGI [1, 4]: 15%
- % ΔcGI [1, 5]: 9%
- % ΔcGI [1, 6]: −4%
- % ΔcGI [1, 7]: 0%
- % ΔcGI [1, 8]: −8%
- % ΔcGI [1, 9]: −4%
- % ΔcGI [1, 10]: −1%
- % ΔcGI [1, 11]: −7%
- effect on growth, in words (M. avium 101): no affect
- % ΔcGI (M. avium 101; 1 μg/ml): 6%
- % ΔcGI (M. avium 101; 4 μg/ml): 7%
- % ΔcGI (M. avium 101; 16 μg/ml): 1%
- % ΔcGI (M. avium 101; 64 μg/ml): 5%
- % ΔcGI ([2]; 1 μg/ml): 3%
- % ΔcGI ([2]; 4 μg/ml): 4%
- % ΔcGI ([2]; 16 μg/ml): −5%
- % ΔcGI ([2]; 64 μg/ml): −4%
- % ΔcGI ([3]; 1 μg/ml): 1%
- % ΔcGI ([3]; 4 μg/ml): −7%
- % ΔcGI ([3]; 16 μg/ml): −4%
- % ΔcGI ([3]; 64 μg/ml): −12%
- % ΔcGI (MAP ATCC 19698 (bovine); 1 μg/ml): −2%
- % ΔcGI (MAP ATCC 19698 (bovine); 4 μg/ml): −7%
- % ΔcGI (MAP ATCC 19698 (bovine); 16 μg/ml): −12%
- % ΔcGI (MAP ATCC 19698 (bovine); 64 μg/ml): −9%
- % ΔcGI (M. avium ATCC 25291; 1 μg/ml): 0%
- % ΔcGI (M. avium ATCC 25291; 4 μg/ml): −8%
- % ΔcGI (M. avium ATCC 25291; 16 μg/ml): −7%
- % ΔcGI (M. avium ATCC 25291; 64 μg/ml): −57%
- %−ΔcGI (percent decrease in cumulative GI) (M. avium ATCC 25291; 64 μg/ml, M. avium ATCC 25291): 57%

Molecule: CC[C@@]1([C@@H]2O[C@@H]([C@H]3O[C@@](O)(CO)[C@H](C)C[C@@H]3C)C[C@@H]2C)CC[C@H]([C@]2(C)CC[C@]3(C[C@H](O)[C@@H](C)[C@@H]([C@@H](C)[C@@H](OC)[C@H](C)C(=O)O)O3)O2)O1 [Monensin, monensin]
- effect on growth of MAP, in words (MAP): dose-dependent inhibition against all MAP strains
- % ΔcGI [1, 4]: −52%
- % ΔcGI [1, 5]: −46%
- % ΔcGI [1, 6]: −77%
- % ΔcGI [1, 7]: −71%
- % ΔcGI [1, 8]: −93%
- % ΔcGI [1, 9]: −87%
- % ΔcGI [1, 10]: −94%
- % ΔcGI [1, 11]: −92%
- effect on growth, in words (M. avium 101): no inhibition
- % ΔcGI (M. avium 101; 1 μg/ml): 7%
- % ΔcGI (M. avium 101; 4 μg/ml): 3%
- % ΔcGI (M. avium 101; 16 μg/ml): 4%
- % ΔcGI (M. avium 101; 64 μg/ml): 8%
- % ΔcGI ([2]; 1 μg/ml): −21%
- % ΔcGI ([2]; 4 μg/ml): −73%
- % ΔcGI ([2]; 16 μg/ml): −94%
- % ΔcGI ([2]; 64 μg/ml): −97%
- % ΔcGI ([3]; 1 μg/ml): −73%
- % ΔcGI ([3]; 4 μg/ml): −93%
- % ΔcGI ([3]; 16 μg/ml): −96%
- % ΔcGI ([3]; 64 μg/ml): −97%
- % ΔcGI (MAP ATCC 19698 (bovine); 1 μg/ml): −14%
- % ΔcGI (MAP ATCC 19698 (bovine); 4 μg/ml): −45%
- % ΔcGI (MAP ATCC 19698 (bovine); 16 μg/ml): −62%
- % ΔcGI (MAP ATCC 19698 (bovine); 64 μg/ml): −65%
- % ΔcGI (M. avium ATCC 25291; 1 μg/ml): −25%
- % ΔcGI (M. avium ATCC 25291; 4 μg/ml): −54%
- % ΔcGI (M. avium ATCC 25291; 16 μg/ml): −69%
- % ΔcGI (M. avium ATCC 25291; 64 μg/ml): −87%

Molecule: O=C1NC(=O)c2ccccc21 [Phthalimide, phthalimide]
- % ΔcGI [1, 4]: −3%
- % ΔcGI [1, 5]: −1%
- % ΔcGI [1, 6]: 7%
- % ΔcGI [1, 7]: 0%
- % ΔcGI [1, 8]: 0%
- % ΔcGI [1, 9]: 1%
- % ΔcGI [1, 10]: 2%
- % ΔcGI [1, 11]: 4%
- effect on growth, in words (M. avium 101): no dose-dependent inhibition
- % ΔcGI (M. avium 101; 1 μg/ml): −3%
- % ΔcGI (M. avium 101; 4 μg/ml): 4%
- % ΔcGI (M. avium 101; 16 μg/ml): 2%
- % ΔcGI (M. avium 101; 64 μg/ml): −2%
- % ΔcGI ([2]; 1 μg/ml): −2%
- % ΔcGI ([2]; 4 μg/ml): 3%
- % ΔcGI ([2]; 16 μg/ml): −13%
- % ΔcGI ([2]; 64 μg/ml): 6%
- dose-dependent inhibition, in words (MAP and M. avium strains): no dose-dependent effect on any strain tested
- dose-dependent inhibition, in words (MAP and M. avium strains; listed as phthalimide): did not exhibit a dose-dependent inhibition of any strain
- % ΔcGI ([3]; 1 μg/ml): 4%
- % ΔcGI ([3]; 4 μg/ml): −2%
- % ΔcGI ([3]; 16 μg/ml): 1%
- % ΔcGI ([3]; 64 μg/ml): 3%
- % ΔcGI (MAP ATCC 19698 (bovine); 1 μg/ml): −2%
- % ΔcGI (MAP ATCC 19698 (bovine); 4 μg/ml): −10%
- % ΔcGI (MAP ATCC 19698 (bovine); 16 μg/ml): 1%
- % ΔcGI (MAP ATCC 19698 (bovine); 64 μg/ml): 0%
- % ΔcGI (M. avium ATCC 25291; 1 μg/ml): 2%
- % ΔcGI (M. avium ATCC 25291; 4 μg/ml): 4%
- % ΔcGI (M. avium ATCC 25291; 16 μg/ml): 1%
- % ΔcGI (M. avium ATCC 25291; 64 μg/ml): 12%
- effect on growth, in words (M. avium ATCC 25291; M. avium ATCC 25291): no dose-dependent inhibition

B1: AhpD: Alkyl hydroperoxide reductase D, immunogenic MAP protein, recombinant antigen (protein, UniProt A0QGI9 1-178, looked up)
Alkyl hydroperoxide reductase …: MSVENLKEALPEYAKDLKLNLGSITRTTELNEEQLWGTLLASAAATRNTQVLTEIGAEAADTLSAEAYHAALGAASVMAMNNVFYRGRGFLDGKYDDLRAGLRMNIIGNPGVEKANFELWCFAVSAINGCPDCVASHEHTLREAGVSRETIQEALKAAAIISGVAQAIVTSQTLATAG
- protection against infection after immunization (MAP and M. tuberculosis): elicits a response capable of protecting against MAP and M. tuberculosis infection
